Laboratory results taken from paper PMC9518264, “Design and synthesis of novel quinazolinone-based derivatives as EGFR inhibitors with antitumor activity” (Journal of Enzyme Inhibition and Medicinal Chemistry, 2022).

Columns and labels:
Experiment in all cases: cells
Type in all cases: cell-based
A549/ATCC = details: Homo sapiens; A549/ATCC; 10 μM; read-out: growth inhibition % (GI%)
MOLT-4 = details: Homo sapiens; MOLT-4; 10 μM; read-out: growth inhibition % (GI%)
MCF7 = details: Homo sapiens; MCF7; 10 μM; read-out: growth inhibition % (GI%)
HCT-15 = details: Homo sapiens; HCT-15; 10 μM; read-out: growth inhibition % (GI%)
SF-295 = details: Homo sapiens; SF-295; 10 μM; read-out: growth inhibition % (GI%)
KM12 = details: Homo sapiens; KM12; 10 μM; read-out: growth inhibition % (GI%)
DU-145 = details: Homo sapiens; DU-145; 10 μM; read-out: growth inhibition % (GI%)
MALME-3M = details: Homo sapiens; MALME-3M; 10 μM; read-out: growth inhibition % (GI%)
HL-60(TB) = details: Homo sapiens; HL-60(TB); 10 μM; read-out: growth inhibition % (GI%)
U251 = details: Homo sapiens, U-251; U251; 10 μM; read-out: growth inhibition % (GI%)
HS 578T = details: Homo sapiens; HS 578T; 10 μM; read-out: growth inhibition % (GI%)

Measured: inhibition at 10 µM

CN1CCN(c2ccc(C=NNC(=O)CSc3nc4ccccc4c(=O)n3-c3ccc(Cl)cc3)cc2)CC1 [6l, 2-((3–(4-chlorophenyl)-4-oxo-3,4-dihydroquinazolin-2-yl)thio)-N'-(4–(4-methylpiperazin-1-yl)benzylidene)acetohydrazide]
< 15%: all assays above

O=C(CSc1nc2ccccc2c(=O)n1-c1ccc(Cl)cc1)NN=Cc1ccc(Oc2ccc(Br)cc2)cc1 [6e, N'-(4–(4-bromophenoxy)benzylidene)-2-((3–(4-chlorophenyl)-4-oxo-3,4-dihydroquinazolin-2-yl)thio)acetohydrazide]
< 15%: all assays above

CN1CCN(c2ccc(C=NNC(=O)CSc3nc4ccccc4c(=O)n3-c3ccccc3)cc2)CC1 [6i, N'-(4–(4-methylpiperazin-1-yl)benzylidene)-2-((4-oxo-3-phenyl-3,4-dihydroquinazolin-2-yl)thio) acetohydrazide]
< 15%: all assays above

COc1ccc(Oc2ccc(C=NNC(=O)CSc3nc4ccccc4c(=O)n3-c3ccccc3)cc2)cc1 [6c, N'-(4–(4-methoxyphenoxy)benzylidene)-2-((4-oxo-3-phenyl-3,4-dihydroquinazolin-2-yl)thio)acetohydrazide]
< 15%: all assays above

O=C(CSc1nc2ccccc2c(=O)n1-c1ccc(Cl)cc1)NN=Cc1ccc(N2CCOCC2)cc1 [6k, 2-((3–(4-chlorophenyl)-4-oxo-3,4-dihydroquinazolin-2-yl)thio)-N'-(4-morpholinobenzylidene) acetohydrazide]
< 15%: all assays above
